Experimental data taken from patent US20120094295A1, “NEURODEGENERATIVE DISEASE DIAGNOSTIC COMPOSITIONS AND METHODS OF USE” (The Johns Hopkins University, priority 2008, published 2012).
Read-outs that look alike come from different tables or passages of the source.

How the values were obtained:
[1] = Human plasma pharmacokinetics of thiamphenicol in healthy volunteers; format: in vivo; conditions: for AUC / Cmax / half-life / Tmax: human, plasma, po
[2] = Safety and tolerability in healthy volunteers; format: in vivo, human; conditions: 750 or 1500 mg once a day oral, 14 days
Method: Thirty-four normal volunteers were divided into three groups: placebo (N=6), TAP 750 mg administered orally once a day (N=12) and TAP 1500 mg administered orally once a day (N=12). Nasal biopsies were taken on day −1 (before drug treatment) and day 14. Plasma pharmacokinetics were done on day 1 and 13 and cerebrospinal fluid samples were taken on day 13 to study the levels of TAP in the brain.
R UX122 was administered in 3 groups (placebo, 750 mg/day, 1500 mg/day) starting day 1 to day 14. Blood samples were taken throughout the trial period to obtain basic pharmacokinetic analyses as well as to monitor for safety and tolerability. Every patient underwent a spinal tap to collect CSF on day 13.

[3] = test system: EAAT1 mRNA; assay: qPCR of nasal biopsy samples before and after drug treatment; format: in vivo, human; conditions: healthy volunteers, 750 or 1500 mg once a day oral, day 14 vs day -1
Method: (§1) Nasal biopsies were performed the day before the beginning of drug treatment (day −1) and on day 14. mRNA levels of several genes were quantified by qPCR analysis. Data are presented as fold increases in mRNA levels after drug treatment for each individual patient.
(§2) Nasal biopsies were taken on day −1 (before drug treatment) and day 14. […] In addition to EAAT2, the mRNA levels of the following genes were measured: GFAP (astrocytic expression in CNS), EAAT1 (astrocytic expression in CNS, expressed in precursor neuronal cells in olfactory epithelium), OMP (neuronal expression in olfactory epithelium and CNS), and MCT-4. […] The intra-patient variability was obtained by comparing mRNA levels obtained from the left and right side of the nose of each volunteer. This was important since the drug study was designed to obtain a biopsy from one side of the nose before drug treatment and from the opposite side of the nose after drug treatment. This allowed each person to serve as their own control and provided an opportunity to follow changes in mRNA levels within individuals.
(§3) Human nasal biopsies were performed by otolaryngologists specializing in sinus surgery. […] Local anesthesia was used for the procedure. Local anesthesia was applied to the nasal cavity. Lidocaine liquid 4% (Xylocaine®) and oxymetazoline HCl 0.05% (Afrin®) was sprayed in the nose. Then, if needed, 1% lidocaine with 1/100,000 epinephrine was injected to provide both anesthesia and vasoconstriction.
(§4) The procedure was performed under endoscopic control and used either a small curette or biting forceps for tissue removal. To avoid trauma to the cribriform plate, the biopsies were usually taken from the upper nasal septum. […] The tissue was removed from either the front or the back of the olfactory cleft, and sometimes both. Up to two blocks of tissue (approximately 2 mm each) were collected from each side of the nose. […] Subjects were instructed not to blow their nose and not to perform any strenuous physical activity for 24 hours after the procedure.
(§5) Healthy volunteers underwent a nasal biopsy on day −1 on one side of the nose only. R UX122 was administered in 3 groups (placebo, 750 mg/day, 1500 mg/day) starting day 1 to day 14. Blood samples were taken throughout the trial period to obtain basic pharmacokinetic analyses as well as to monitor for safety and tolerability. […] On day 14, a nasal biopsy was done on the other side of the nose.
(§6) Total RNA was reversed transcribed using Applied Biosystems' high capacity cDNA archive kit. The quantitative real time RT-PCR assay was performed using the iCycler iQ Real-Time Detection System from BioRad. TaqMan Probes, which allow for specific mRNA amplification, were purchased from Applied Biosystems.

[4] = test system: EAAT2/GLT-1 mRNA; assay: as above; format: in vivo, human; conditions: healthy volunteers, 750 or 1500 mg once a day oral, day 14 vs day -1
Method: as §1, §2, §3, §4, §5, §6

[5] = test system: GFAP mRNA; assay: as above; format: in vivo, human; conditions: healthy volunteers, 750 or 1500 mg once a day oral, day 14 vs day -1
Method: as §1, §2, §3, §4, §5, §6

[6] = test system: MCT-4 mRNA; assay: as above; format: in vivo, human; conditions: healthy volunteers, 750 or 1500 mg once a day oral, day 14 vs day -1
Method: as §1, §2, §3, §4, §5, §6

[7] = test system: OMP mRNA; assay: as above; format: in vivo, human; conditions: healthy volunteers, 750 or 1500 mg once a day oral, day 14 vs day -1
Method: as §1, §2, §3, §4, §5, §6

[8] = test system: EAAT2 promoter; assay: EAAT2 promoter luciferase reporter gene assay in immortalized astrocytes; format: cell-based, human; conditions: luciferase reporter driven by 2.5 kB EAAT2 promoter fragment, 72 hours
Method: (§7) FIG. 3A is a graph showing EAAT2 promoter activation. EAAT2 promoter activation was examined by measuring luciferase activity using a reporter gene construct driven by a 2.5 kB promoter fragment of EAAT2 (Rothstein et al., Nature. 2005 Jan. 6; 433(7021):73-7). […] Glutamate-uptake was measured using standard techniques. […] Cells were then exposed to an oxygen-glucose-free environment for 1.5 hours (Goldberg et al). After the oxygen-glucose deprivation, cells were washed back into normal artificial cerebral spinal fluid (ACSF) solution and maintained for another 23 hours at 37 C, 5% CO2. Neuronal cell death was determined by measuring […] (LDH) release. Cells treated with MK-801, 6-cyano-7-nitroquinoxaline-2,3-dione), (CNQX) and nimodipine (MCN) were used as a positive control for neuroprotective activity.

[9] = test system: glutamate uptake; assay: Glutamate uptake in primary cultures of neurons and astrocytes; format: cell-based; conditions: primary mouse cultures of neurons and astrocytes, 72 hours
Method: as §7

[10] = test system: primary mouse cultures of neurons and astrocytes; assay: Oxygen-glucose deprivation (OGD) assay, neuronal cell death by LDH release; format: cell-based; conditions: 72 hours treatment, then oxygen-glucose deprivation 1.5 hours
Method: as §7

[11] = test system: GLT-1 mRNA; assay: GLT-1 mRNA in treated wild-type mice; format: in vivo, mouse; conditions: WT mice, 12.5 or 25 mg/kg/day oral, 10 days
Method: as §6

[12] = test system: EAAT2/GLT-1; assay: EAAT2/GLT-1 gene expression in nasal olfactory epithelium; conditions: in vivo
[13] = test system: glutamate transporter EAAT2/GLT-1; assay: Glutamate transporter function in vitro and in vivo
[14] = human, in vivo

SMILES: CS(=O)(=O)c1ccc([C@@H](O)[C@@H](CO)NC(=O)C(Cl)Cl)cc1 [TAP, thiamphenicol]
- plasma concentrations versus dose ([1]; 750 and 1500 mg/day oral): dose-related plasma concentrations
- drug accumulation ([1]; 14 days once daily oral): no drug accumulation
- AUC ([1]; 750 mg/day, oral 750 mg/day, Day 1): 42600 ng·h/mL
- Cmax ([1]; 750 mg/day, oral 750 mg/day, Day 1, plasma): 6310 ng/mL
- half-life ([1]; 750 mg/day, oral 750 mg/day, Day 1, read-out: T ½ (converted)): 4.1 ± 0.8 h
- Tmax ([1]; 750 mg/day, oral 750 mg/day, Day 1, read-out: Tmax median(range)): 2 h
- AUC ([1]; 750 mg/day, oral 750 mg/day, Day 13): 51100 ng·h/mL
- Cmax ([1]; 750 mg/day, oral 750 mg/day, Day 13, plasma): 6550 ng/mL
- half-life ([1]; 750 mg/day, oral 750 mg/day, Day 13, read-out: T ½ (converted)): 4.8 ± 0.6 h
- Tmax ([1]; 750 mg/day, oral 750 mg/day, Day 13, read-out: Tmax median(range)): 2 h
- AUC ([1]; 1500 mg/day, oral 1500 mg/day, Day 1): 88000 ng·h/mL
- Cmax ([1]; 1500 mg/day, oral 1500 mg/day, Day 1, plasma): 10700 ng/mL
- half-life ([1]; 1500 mg/day, oral 1500 mg/day, Day 1, read-out: T ½ (converted)): 4.2 ± 0.5 h
- Tmax ([1]; 1500 mg/day, oral 1500 mg/day, Day 1, read-out: Tmax median(range)): 2.5 h
- AUC ([1]; 1500 mg/day, oral 1500 mg/day, Day 13): 96700 ng·h/mL
- Cmax ([1]; 1500 mg/day, oral 1500 mg/day, Day 13, plasma): 11000 ng/mL
- half-life ([1]; 1500 mg/day, oral 1500 mg/day, Day 13, read-out: T ½ (converted)): 5.7 ± 1 h
- Tmax ([1]; 1500 mg/day, oral 1500 mg/day, Day 13, read-out: Tmax median(range)): 2 h
- half-life ([1]; 750 and 1500 mg/day oral, read-out: average half life): 4 to 6 h
- serious adverse side-effects [2]: no serious adverse side-effects were reported
- tolerability [2]: well tolerated at every dose
- EAAT1 mRNA levels in olfactory epithelium after drug treatment [3]: no difference in mRNA levels
- EAAT1 mRNA levels in olfactory epithelium after drug treatment ([3]; listed as thiamphenicol): no change in gene expression levels
- EAAT2/GLT-1 mRNA levels in olfactory epithelium after drug treatment [4]: dose-dependent positive trend towards an increase in mRNA levels
- EAAT2/GLT-1 mRNA levels in olfactory epithelium after drug treatment ([4]; listed as thiamphenicol): positive trend towards increased gene expression levels
- GFAP mRNA levels in olfactory epithelium after drug treatment [5]: dose-dependent positive trend towards an increase in mRNA levels
- GFAP mRNA levels in olfactory epithelium after drug treatment ([5]; listed as thiamphenicol): positive trend towards increased gene expression levels
- MCT-4 mRNA levels in olfactory epithelium after drug treatment [6]: no difference in mRNA levels
- MCT-4 mRNA levels in olfactory epithelium after drug treatment ([6]; listed as thiamphenicol): no change in gene expression levels
- OMP mRNA levels in olfactory epithelium after drug treatment [7]: no difference in mRNA levels
- OMP mRNA levels in olfactory epithelium after drug treatment ([7]; listed as thiamphenicol): no change in gene expression levels
- EAAT2 promoter activation [8]: activated the transporter on a promoter level
- glutamate uptake [9]: dose-dependently increased glutamate uptake
- neuroprotection (neuronal cell death, LDH release) [10]: dose-dependent neuroprotection
- GLT-1 mRNA [11]: dose-dependently increased
- EAAT2/GLT-1 gene expression in nasal olfactory epithelium [12]: increased EAAT2/GLT-1 gene expression in nasal olfactory epithelium
- glutamate transporter function [13]: increased transporter function in vitro and in vivo
- correlation between plasma concentrations and CSF levels [14]: linear correlation

SMILES: CO/N=C(\C(=O)N[C@@H]1C(=O)N2C(C(=O)O)=C(CSc3nc(=O)c(=O)[nH]n3C)CS[C@H]12)c1csc(N)n1 [ceftriaxone]
- EAAT2 promoter activation [8]: activated the transporter on a promoter level
- EAAT2/GLT-1 gene expression in nasal olfactory epithelium [12]: increased EAAT2/GLT-1 gene expression in nasal olfactory epithelium
- glutamate transporter function [13]: increased transporter function in vitro and in vivo
